Laboratory results reported in patent US20010044459A1, “Hydroxamic acid derivatives” (priority 1997, published 2001).
Where a SMILES comes first, the peptide text is derived from it.

Experiments:
[1] = biological target: NAALADase (Rattus norvegicus, UniProt P70627); assay: In vitro assay of NAALADase activity ([3H]Glu liberated from [3H]NAAG, synaptosomal protein); type: biochemical; details: compared with 2-(phosphonomethyl)pentanedioic acid
Protocol: Substrate and product were resolved by anion-exchange liquid chromatography. […] Quisqualate (100 μM) was included in parallel assay tubes to confirm the specificity of the measurements.

[2] = test system: cortical cell cultures; assay: In vitro toxicity of NAAG (LDH release); type: cell-based, rats; details: NAAG 3 μM for 20 minutes
Protocol: Experiments are performed after 21 days in cultures.
At the end of exposure, the cells are washed once with HEPES buffered saline solution and then replaced with serum free modified Earle's basal medium. The cultures are then returned to the CO2 incubator for 24 hour recovery.
This control measurement is subtracted from each experimental point.

[3] = biological target: NAALADase (Homo sapiens, UniProt Q04609); details: read-out: Km of NAALADase for NAAG; NAAG as substrate; cited from earlier work
NAALADase (Homo sapiens, UniProt Q04609), sequence (Q04609 whole entry): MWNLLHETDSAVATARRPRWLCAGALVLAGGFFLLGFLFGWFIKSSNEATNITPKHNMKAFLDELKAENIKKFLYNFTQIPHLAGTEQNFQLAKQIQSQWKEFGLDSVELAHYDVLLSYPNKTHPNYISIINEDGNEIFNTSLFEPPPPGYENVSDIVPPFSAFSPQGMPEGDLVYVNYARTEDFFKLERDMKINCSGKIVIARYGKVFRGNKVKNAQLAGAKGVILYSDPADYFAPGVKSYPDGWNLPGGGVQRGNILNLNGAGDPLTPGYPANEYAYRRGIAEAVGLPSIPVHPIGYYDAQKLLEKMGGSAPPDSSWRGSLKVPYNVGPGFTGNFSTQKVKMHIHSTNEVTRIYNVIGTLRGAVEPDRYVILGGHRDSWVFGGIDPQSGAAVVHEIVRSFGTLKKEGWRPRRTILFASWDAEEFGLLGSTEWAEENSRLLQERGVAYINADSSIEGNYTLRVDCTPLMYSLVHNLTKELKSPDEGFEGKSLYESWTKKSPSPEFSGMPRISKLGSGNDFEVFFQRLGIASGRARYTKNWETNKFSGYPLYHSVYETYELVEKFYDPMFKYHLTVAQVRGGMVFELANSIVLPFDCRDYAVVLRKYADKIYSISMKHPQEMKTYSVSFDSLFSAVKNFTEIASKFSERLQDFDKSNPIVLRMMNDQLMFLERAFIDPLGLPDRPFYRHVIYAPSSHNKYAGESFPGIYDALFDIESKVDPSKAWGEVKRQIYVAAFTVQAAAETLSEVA

NAALADase (Rattus norvegicus, UniProt P70627), sequence (P70627 whole entry): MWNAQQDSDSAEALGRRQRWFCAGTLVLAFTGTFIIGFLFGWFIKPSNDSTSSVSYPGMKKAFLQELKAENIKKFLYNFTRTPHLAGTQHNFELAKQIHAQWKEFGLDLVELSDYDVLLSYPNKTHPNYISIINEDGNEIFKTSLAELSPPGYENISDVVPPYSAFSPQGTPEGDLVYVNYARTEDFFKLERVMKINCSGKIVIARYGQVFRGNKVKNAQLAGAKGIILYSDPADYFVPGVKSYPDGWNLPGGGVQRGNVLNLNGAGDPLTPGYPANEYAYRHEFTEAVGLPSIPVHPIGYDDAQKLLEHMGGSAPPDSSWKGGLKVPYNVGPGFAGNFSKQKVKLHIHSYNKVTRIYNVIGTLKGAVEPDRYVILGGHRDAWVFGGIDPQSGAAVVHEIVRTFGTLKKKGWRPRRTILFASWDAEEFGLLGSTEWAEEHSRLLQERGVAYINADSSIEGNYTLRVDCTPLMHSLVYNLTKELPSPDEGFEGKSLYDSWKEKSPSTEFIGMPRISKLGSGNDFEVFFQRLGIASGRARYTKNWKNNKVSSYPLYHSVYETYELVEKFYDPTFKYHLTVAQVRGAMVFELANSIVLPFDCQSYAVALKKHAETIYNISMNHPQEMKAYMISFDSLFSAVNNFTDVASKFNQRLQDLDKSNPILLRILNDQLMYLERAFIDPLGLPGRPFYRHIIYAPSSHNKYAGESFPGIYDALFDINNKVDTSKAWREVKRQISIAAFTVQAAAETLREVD

Row | SMILES | NAALADase inhibiting activity (in words, by comparison) [1] | % Toxicity [2] [%] | Km [3] [µM]
1 | O=C(O)CC(CP(=O)(O)O)C(=O)O (stereo not shown) [2-(phosphonomethyl)succinic acid] | much lower NAALADase inhibiting activity |  | 
2 | O=C(O)CCC(CP(=O)(O)CCC(=O)O)C(=O)O (stereo not shown) [2-[[2-carboxyethyl)hydroxyphosphinol]methyl]pentanedioic acid] | lower NAALADase inhibiting activity |  | 
3 | CC(=O)N[C@@H](CC(=O)O)C(=O)N[C@@H](CCC(=O)O)C(=O)O [NAAG, N-acetyl-aspartyl-glutamate] (Ac-Asp-Glu-OH) |  | 3.51 | 0.54
